For 32 compounds, IC50 results are on record in patent US9694016B2 (Novartis AG, priority 2013, dated 2017).

Structures are written as SMILES.

b-Raf (V600E), sequence (P15056 whole entry V600E): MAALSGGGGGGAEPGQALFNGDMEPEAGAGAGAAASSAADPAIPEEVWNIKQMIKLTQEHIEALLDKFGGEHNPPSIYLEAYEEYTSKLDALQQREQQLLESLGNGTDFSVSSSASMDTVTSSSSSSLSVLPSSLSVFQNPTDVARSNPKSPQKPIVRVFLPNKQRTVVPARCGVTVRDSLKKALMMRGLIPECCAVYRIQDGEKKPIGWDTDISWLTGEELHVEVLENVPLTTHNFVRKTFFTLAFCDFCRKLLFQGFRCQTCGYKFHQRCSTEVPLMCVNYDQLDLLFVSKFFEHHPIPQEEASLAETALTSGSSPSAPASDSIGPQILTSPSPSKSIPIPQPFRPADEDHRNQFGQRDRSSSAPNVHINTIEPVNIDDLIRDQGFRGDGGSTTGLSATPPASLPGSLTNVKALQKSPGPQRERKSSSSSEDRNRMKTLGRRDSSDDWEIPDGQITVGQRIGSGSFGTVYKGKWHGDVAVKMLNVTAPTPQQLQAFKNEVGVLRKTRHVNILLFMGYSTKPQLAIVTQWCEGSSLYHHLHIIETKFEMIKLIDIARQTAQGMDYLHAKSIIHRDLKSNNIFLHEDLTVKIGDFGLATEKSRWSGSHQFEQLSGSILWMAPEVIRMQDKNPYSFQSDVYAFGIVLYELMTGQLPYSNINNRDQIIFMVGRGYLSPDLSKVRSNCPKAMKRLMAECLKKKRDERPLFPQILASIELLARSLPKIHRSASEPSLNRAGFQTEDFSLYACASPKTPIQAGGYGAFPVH

One assay concerns the target b-Raf (V600E) (Homo sapiens (Human), UniProt P15056, V600E). As to conditions: read-out: b-Raf IC-50.
In the case of `COc1cc(-c2cc(NC(=O)c3cccc(C(F)(F)F)c3)ccc2C)nc(N2CCOCC2)c1` [Example 196, N-(3-(4-methoxy-6-morpholinopyridin-2-yl)-4-methylphenyl)-3-(trifluoromethyl)benzamide], the IC50 amounted to 1.5 nM.

The assay is the same for the next values; noted with them: read-out: b-Raf IC-50; AlphaScreen, 60 min pre-incubation, 3 hours reaction.
Consider `Cc1ncc(NC(=O)c2ccnc(C(C)(F)F)c2)cc1-c1cc(N2CCOCC2)n2nccc2n1` [Example 799, 2-(1,1-difluoroethyl)-N-(6-methyl-5-(7-morpholinopyrazolo[1,5-a]pyrimidin-5-yl)pyridin-3-yl)isonicotinamide], for which the IC50 was found to be 1.5 nM.
Take `CCOc1nnc(-c2cc(NC(=O)c3cnnc(C(F)(F)F)c3)ccc2C)cc1N1CCOCC1` [Example 570, N-(3-(6-ethoxy-5-morpholinopyridazin-3-yl)-4-methylphenyl)-6-(trifluoromethyl)pyridazine-4-carboxamide]: the IC50 was 0.8 nM.
As to `Cc1ccc(NC(=O)c2ccnc(C(C)(C)C#N)c2)cc1-c1cc(N2CCOCC2)nc(N2CC(O)C2)n1` [Example 769], the IC50 stood at 10.2 nM.
In the case of `Cc1ccc(NC(=O)c2cc(C(F)(F)F)ccn2)cc1-c1cc(N2CCOCC2)c(OC(C)C)nn1` [Example 594, N-(3-(6-isopropoxy-5-morpholinopyridazin-3-yl)-4-methylphenyl)-4-(trifluoromethyl)picolinamide], the IC50 worked out at 0.8 nM.
On the same count and under the same terms, for `Cc1ccc(NC(=O)c2cnnc(C3CC3)c2)cc1-c1cc(N2CCOCC2)c(=O)n(C)n1` [Example 644, 6-cyclopropyl-N-(4-methyl-3-(1-methyl-5-morpholino-6-oxo-1,6-dihydropyridazin-3-yl)-phenyl)pyridazine-4-carboxamide] the value was 2.9 nM.
As to `Cc1ccc(NC(=O)c2ccnc(C(C)(F)F)c2)cc1-c1cc(N2CCOCC2)nc(N(C)C)n1` [Example 756, 2-(1,1-difluoroethyl)-N-(3-(2-(dimethylamino)-6-morpholinopyrimidin-4-yl)-4-methylphenyl)isonicotinamide], the IC50 came out at 4.2 nM.
Consider `Cc1ccc(NC(=O)c2ccnc(S(C)(=O)=O)c2)cc1-c1cc(N2CCOCC2)n(C)c(=O)c1` [Example 474, N-(4-methyl-3-(1-methyl-6-morpholino-2-oxo-1,2-dihydropyridin-4-yl)phenyl)-2-(methylsulfonyl)isonicotinamide], for which the IC50 worked out at 2.2 nM.
The same measure, in the same setting: as for `CCNc1nc(-c2cc(NC(=O)c3ccnc(S(C)(=O)=O)c3)ccc2C)cc(N2CCOCC2)n1` [Example 702, N-(3-(2-(ethylamino)-6-morpholinopyrimidin-4-yl)-4-methylphenyl)-2-(methylsulfonyl)isonicotinamide], the figure is 3 nM; as for `CCN1CCN(c2cc(C(=O)Nc3ccc(C)c(-c4cc(N5CCOCC5)c(=O)n(C)n4)c3)cc(C(F)(F)F)c2)CC1` [Example 649, 3-(4-ethylpiperazin-1-yl)-N-(4-methyl-3-(1-methyl-5-morpholino-6-oxo-1,6-dihydropyridazin-3-yl)phenyl)-5-(trifluoromethyl)benzamide], 4.6 nM.
For `Cc1ccc(NC(=O)c2ccnc(S(C)(=O)=O)c2)cc1-c1cc(N2CCOCC2)nc(N(C)C)n1` [Example 759, N-(3-(2-(dimethylamino)-6-morpholinopyrimidin-4-yl)-4-methylphenyl)-2-(methylsulfonyl)isonicotinamide], the IC50 stood at 11.5 nM.
Take `Cc1ccc(C(=O)Nc2cccc(C(C)(C)C#N)c2)cc1-c1cc(N2CCOCC2)n(C)c(=O)c1` [Example 515, N-(3-(2-cyanopropan-2-yl)phenyl)-4-methyl-3-(1-methyl-6-morpholino-2-oxo-1,2-dihydropyridin-4-yl)benzamide]: the IC50 was determined as 4.5 nM.

The same assay, now with this note: read-out: b-Raf IC-50; AlphaScreen, 60 min pre-incubation, reaction 3 hours at room temperature.
In the case of `Cc1ccc(NC(=O)c2ccnc(C(F)F)c2)cc1-c1cc(N2CCOCC2)nc(N2CC(C)(O)C2)c1` [Example 1072, 2-(difluoromethyl)-N-(3-(2-(3-hydroxy-3-methylazetidin-1-yl)-6-morpholinopyridin-4-yl)-4-methylphenyl)isonicotinamide], the IC50 is 1.74 nM.
Still for that read-out and setting: for `O=C(Nc1c[nH]c(=O)c(-c2ccnc(N3CCOCC3)c2)c1)c1cccc(C(F)F)c1` [Example 1174, 3-(difluoromethyl)-N-(2′-morpholino-2-oxo-1,2-dihydro-[3,4′-bipyridin]-5-yl)benzamide] the value was 25000 nM; for `Cc1ccc(NC(=O)c2cc(C(F)(F)F)ccn2)cc1-c1cc(OCCO)nc(N2CCOCC2)c1` [Example 1163, N-(3-(2-(2-hydroxyethoxy)-6-morpholinopyridin-4-yl)-4-methylphenyl)-4-(trifluoromethyl)picolinamide], 1.12 nM.
`Cc1ccc(NC(=O)c2ccnc(C(C)(C)C#N)c2)cc1-c1cc(N2CCOCC2)nc(N2CCOCC2)c1` [Example 1113, 2-(2-cyanopropan-2-yl)-N-(3-(2,6-dimorpholinopyridin-4-yl)-4-methylphenyl)isonicotinamide]: the IC50 was 1.32 nM.
In the case of `Cc1ccc(NC(=O)c2ccnc(C(C)(F)F)c2)cc1-c1cc(OCCO)nc(N2CCOCC2)c1` [Example 1159, 2-(1,1-difluoroethyl)-N-(3-(2-(2-hydroxyethoxy)-6-morpholinopyridin-4-yl)-4-methylphenyl)isonicotinamide], the IC50 was found to be 0.75 nM.
Regarding `Cc1ncc(NC(=O)c2cc(CN(C)C)cc(C(F)(F)F)c2)cc1-c1cc(N2CCOCC2)nc(N2CC(O)C2)c1` [Example 1085, 3-((dimethylamino)methyl)-N-(2′-(3-hydroxyazetidin-1-yl)-2-methyl-6′-morpholino-[3,4′-bipyridin]-5-yl)-5-(trifluoromethyl)benzamide], the IC50 turned out to be 108 nM.
Take `Cc1ncc(NC(=O)c2ccnc(C(F)(F)F)c2)cc1-c1cnc(OC(F)F)c(N2CCOCC2)c1` [Example 978]: the IC50 was determined as 1.86 nM.
With `Cc1ncc(NC(=O)c2cnnc(C3(C#N)CC3)c2)cc1-c1cnc(OC2CCOCC2)c(N2CCOCC2)c1` [Example 944, 6-(1-cyanocyclopropyl)-N-(2-methyl-5′-morpholino-6′-((tetrahydro-2H-pyran-4-yl)oxy)-[3,3′-bipyridin]-5-yl)pyridazine-4-carboxamide], the IC50 was 3.89 nM.
For the compound `Cc1ccc(NC(=O)c2cnnc(C3CC3)c2)cc1-c1cc(N2CCOCC2)nc(N2CC(C)(O)C2)c1` [Example 1076, 6-cyclopropyl-N-(3-(2-(3-hydroxy-3-methylazetidin-1-yl)-6-morpholinopyridin-4-yl)-4-methylphenyl)pyridazine-4-carboxamide], the IC50 is 2.31 nM.
Consider `Cc1ncc(NC(=O)c2ccnc(C(C)(F)F)c2)cc1-c1cnc(OC2CCOCC2)c(N2CCOCC2)c1` [Example 938, 2-(1,1-difluoroethyl)-N-(2-methyl-5′-morpholino-6′-((tetrahydro-2H-pyran-4-yl)oxy)-[3,3′-bipyridin]-5-yl)isonicotinamide], for which the IC50 amounted to 2.36 nM.
Same read-out and setting: as for `Cc1ncc(NC(=O)c2ccnc(C(C)(C)C#N)c2)cc1-c1cnc(OC2CC3(COC3)C2)c(N2CCOCC2)c1` [Example 967, N-(6′-(2-oxaspiro[3.3]heptan-6-yloxy)-2-methyl-5′-morpholino-[3,3′-bipyridin]-5-yl)-2-(2-cyanopropan-2-yl)isonicotinamide], the figure is 5.74 nM.

Still in this assay, the particulars now being: read-out: b-Raf IC-50; Table 2; AlphaScreen, 3 hours reaction.
For `Cc1ncc(NC(=O)c2cc(C3CC3)nn2C)cc1-c1cc(N2CCOCC2)c(=O)n(C)c1` [Example 377, 3-cyclopropyl-N-(1′,2-dimethyl-5′-morpholino-6′-oxo-1′,6′-dihydro-[3,3′-bipyridin]-5-yl)-1-methyl-1H-pyrazole-5-carboxamide], the IC50 was determined as 200 nM.
As to `Cc1ccc(NC(=O)c2cc(C(F)(F)F)ccn2)cc1-c1cc(N2CCOCC2)c(=O)n(C)c1` [Example 364, N-(4-methyl-3-(1-methyl-5-morpholino-6-oxo-1,6-dihydropyridin-3-yl)phenyl)-4-(trifluoromethyl)picolinamide], the IC50 was 2.1 nM.
Same read-out and setting: for `COc1ncc(-c2cc(NC(=O)c3ccnc(C(C)(C)C#N)c3)cnc2Cl)cc1N1CCOCC1` [Example 264, N-(2-chloro-6′-methoxy-5′-morpholino-[3,3′-bipyridin]-5-yl)-2-(2-cyanopropan-2-yl)isonicotinamide] the value was 8.6 nM; for `Cc1ccc(NC(=O)c2cccc(C(F)(F)F)c2)cc1-c1cc(N2CCS(=O)(=O)CC2)nc(N2CCOCC2)n1` [Example 6, N-(3-(6-(1,1-dioxidothiomorpholino)-2-morpholinopyrimidin-4-yl)-4-methylphenyl)-3-(trifluoromethyl)benzamide], 1.3 nM.
Turning to `Cc1ncc(NC(=O)c2cccc(C(F)(F)F)c2)cc1-c1cnc(O[C@@H]2CCOC2)c(N2CCOCC2)c1` [Example 311, (R)—N-(2-methyl-5′-morpholino-6′-((tetrahydrofuran-3-yl)oxy)-[3,3′-bipyridin]-5-yl)-3-(trifluoromethyl)benzamide], the IC50 turned out to be 2.4 nM.
Same read-out and setting: as for `Cc1ncc(NC(=O)c2cccc(C(F)(F)F)c2)cc1-c1cnc(OC2CCOCC2)c(N2CCOCC2=O)c1` [Example 309, N-(2-methyl-5′-(3-oxomorpholino)-6′-((tetrahydro-2H-pyran-4-yl)oxy)-[3,3′-bipyridin]-5-yl)-3-(trifluoromethyl)benzamide], the figure is 9.2 nM.
With `Cc1ncc(NC(=O)c2ccnc(C(C)(C)C#N)c2)cc1-c1cnc(OCCO)c(N2CCOCC2)c1` [Example 300, 2-(2-cyanopropan-2-yl)-N-(6′-(2-hydroxyethoxy)-2-methyl-5′-morpholino-[3,3′-bipyridin]-5-yl)isonicotinamide], the IC50 was 14.6 nM.
`Cc1ncc(NC(=O)c2ccnc(C3(C#N)CC3)c2)cc1-c1cnc(Cl)c(N2CCOCC2)c1` [Example 288, N-(6′-chloro-2-methyl-5-morpholino-[3,3′-bipyridin]-5-yl)-2-(1-cyanocyclopropyl)isonicotinamide]: the IC50 amounted to 6 nM.
On the same count and under the same terms, as for `Cc1ncc(NC(=O)c2cc(C3CC3)on2)cc1-c1cc(N2CCOCC2)c(=O)n(C)c1` [Example 380, 5-cyclopropyl-N-(1′,2-dimethyl-5′-morpholino-6′-oxo-1′,6′-dihydro-[3,3′-bipyridin]-5-yl)isoxazole-3-carboxamide], the figure is 12.5 nM.
